Patent US20130116231A1, “TYROSINE KINASE INHIBITORS” (Merck Sharp & Dohme Corp., priority 2010, published 2013)
pIC50: −log10 of the molar value.

Target: T1, human c-Met (Homo sapiens, UniProt P08581)
T1 construct: Recombinant GST-tagged cytosolic domains of human c-Met; 6xHis; made in house; host or cells: Sf9 or Sf21 insect cells (baculovirus)
Experiment: in vitro kinase assay (homogeneous time-resolved tyrosine kinase assay, METKA)
Type: biochemical
Conditions: recombinant GST-tagged c-Met cytosolic domain, HTRF, 50 μM MgATP; read-out: Biological Activity (METKA IC50) Activity Code
Excerpt: Recombinant GST-tagged cytosolic domains of human c-Met and other receptor tyrosine kinases including mouse c-Met, human Ron, KDR, IGFR, EGFR, FGFR, Mer, TrkA and Tie2 are used to determine whether the compounds of the instant invention modulate the enzymatic activities of these kinases.
Soluble recombinant GST-tagged cytosolic domains of c-Met and other receptor tyrosine kinases are expressed in a baculovirus system (Pharmingen) according to a protocol recommended by the manufacturer. The c-DNA encoding each cytosolic domain is subcloned into a baculovirus expression vector (pGcGHLT-A, B or C, Pharmingen) containing an in frame 6× histidine tag and a GST tag. The resulting plasmid construct and BaculoGold baculovirus DNA (Pharmingen) are used to co-transfect Sf9 or Sf21 insect cells. After confirming expression of GST-tagged kinase fusion, a high titer recombinant baculovirus stock is produced, expression conditions are optimized, and a scaled up expression of rat KDR-GST fusion is performed. The fusion kinase is then purified from the insect cell lysate by affinity chromatography using glutathione agarose (Pharmingen). The purified protein is dialyzed against 50% glycerol, 2 mM DTT, 50 mM Tris-HCl (pH 7.4) and stored at −20° C. The protein concentrations of the fusion proteins are determined using Coomassie Plus Protein Assay (Pierce) with BSA as standard.
The kinase activities of c-Met and other kinases are measured using a modified version of the homogeneous time-resolved tyrosine kinase assay described by Park et al. (1999, Anal. Biochem. 269:94-104).
The procedure for determining the potency of a compound to inhibit c-Met kinase comprises the following steps: • 1. Prepare 3-fold serial diluted compound solutions in 100% dimethyl sulfoxide (DMSO) at 20× of the desired final concentrations in a 96 well plate. • 2. Prepare a master reaction mix containing 6.67 mM MgCl2, 133.3 mM NaCl, 66.7 mM Tris-HCl (pH 7.4), 0.13 mg/ml BSA, 2.67 mM dithiothreitol, 0.27 nM recombinant c-Met and 666.7 nM biotinylated synthetic peptide substrate (biotin-ahx-EQEDEPEGDYFEWLE-CONH2) (SEQ.ID.NO.:1). • 3. In a black assay plate, add 2.5 μl of compound solution (or DMSO) and 37.5 μl of master reaction mix per well. Initiate the kinase reaction by adding 10 μl of 0.25 mM MgATP per well. Allow the reactions to proceed for 80 min at room temperature. The final conditions for the reaction are 0.2 nM c-Met, 0.5 μM substrate, 50 μM MgATP, […], 100 mM NaCl, 2 mM DTT, 0.1 mg/ml BSA, 50 mM Tris (pH 7.4) and 5% DMSO. • 4. Stop the kinase reaction with 50 μl of Stop/Detection buffer containing 10 mM EDTA, 25 mM HEPES, 0.1% TRITON X-100, 0.126 μg/ml Eu-chelate labeled anti-phosphotyrosine antibody PY20 (cat. #AD0067, PerkinElmer) and 45 μg/ml Streptavidin-allophycocyanin conjugate (cat. #PJ25S, Prozyme). • 5. Read HTRF signals on a Victor reader (PerkinElmer) in HTRF mode after 60 min. • 6. IC50 is determined by fitting the observed relationship between compound concentration and HTRF signal with a 4-parameter logistic equation. Essentially the same procedure was used to determine the potency of compounds to inhibit mouse c-Met, human Ron, KDR, IGFR, EGFR, FGFR, Mer, TrkA and Tie2 except that the concentration of enzyme varied in individual assays (0.2 nM mouse c-Met; 2.5 nM Ron, 8 nM KDR; 0.24 nM IGFR; 0.24 nM EGFR; 0.14 nM FGFR; 16 nM Mer; 8 nM TrkA; 8 nM Tie2).

T1 sequence (P08581 956-1390 limits assumed): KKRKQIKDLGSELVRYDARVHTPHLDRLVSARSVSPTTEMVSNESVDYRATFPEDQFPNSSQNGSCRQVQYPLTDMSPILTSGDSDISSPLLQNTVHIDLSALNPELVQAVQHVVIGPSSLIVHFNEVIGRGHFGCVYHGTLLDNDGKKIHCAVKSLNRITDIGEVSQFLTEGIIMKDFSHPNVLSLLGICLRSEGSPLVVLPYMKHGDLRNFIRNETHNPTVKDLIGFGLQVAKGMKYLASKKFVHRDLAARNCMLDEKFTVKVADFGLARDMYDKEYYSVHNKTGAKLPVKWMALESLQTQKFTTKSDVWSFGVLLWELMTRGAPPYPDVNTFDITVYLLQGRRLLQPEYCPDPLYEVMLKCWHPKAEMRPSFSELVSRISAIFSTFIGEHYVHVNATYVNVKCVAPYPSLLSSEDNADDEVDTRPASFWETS

| SMILES | pIC50 |
| --- | --- |
| Cn1cc(-n2ccc(=O)c(COc3ccc4ncc(-n5cc(COC6CCNCC6)nn5)cc4c3)n2)cn1 [Example 41, 1-(1-methyl-1H-pyrazol-4-yl)-3-{[(3-{4-[(piperidin-4-yloxy)methyl]-1H-1,2,3-triazol-1-yl}quinolin-6-yl)oxy]methyl}pyridazin-4(1H)-one] | 6.00 to 7.00 |
| Cn1cc(-n2ccc(=O)c(COc3ccc4ncc(-n5ccnn5)cc4c3)n2)cn1 [Example 42, 1-(1-Methyl-1H-pyrazol-4-yl)-3-({[3-(1H-1,2,3-triazol-1-yl)quinolin-6-yl]oxy}methyl)pyridazin-4(1H)-one] | > 7.00 |
| O=c1ccn(-c2ccc(F)c(F)c2)nc1COc1ccc2ncccc2c1 [Example 8, 1-(3,4-difluorophenyl)-3-[(quinolin-6-yloxy)methyl] pyridazin-4(1H)-one] | > 7.00 |
| Cn1cc(-n2ccc(=O)c(COc3ccc4ncc(OCC5CCOC5)cc4c3)n2)cn1 (centres unmarked) [Example 25, 1-(1-methyl-1H-pyrazol-4-yl)-3-({[3-(tetrahydrofuran-3-ylmethoxy)quinolin-6-yl]oxy}methyl)pyridazin-4(1H)-one] | > 7.00 |
| N#Cc1cc(Cl)cc(-n2ccc(=O)c(COc3ccc4ncccc4c3)n2)c1 [Example 6, 3-chloro-5-{4-oxo-3-[(quinolin-6-yloxy)methyl]pyridazin-1(4H)-yl}benzonitrile] | > 7.00 |
| N#Cc1ccc(-n2ccc(=O)c(COc3ccc4ncccc4c3)n2)cc1 [Example 5, 4-{4-oxo-3-[(quinolin-6-yloxy)methyl]pyridazin-1(4H)-yl}benzonitrile] | > 7.00 |
| Cn1cc(-n2ccc(=O)c(COc3ccc([N+](=O)[O-])cc3)n2)cn1 [Example 9, 1-(1-methyl-1H-pyrazol-4-yl)-3-[(4-nitrophenoxy)methyl] pyridazin-4(1H)-one] | 5.52 to 6.00 |
| COCCOc1cnc2ccc(OCc3nn(-c4cccc(C(=O)N(C)C)c4)ccc3=O)cc2c1 [Example 52, 3-[3-({[3-(2-methoxyethoxy)quinolin-6-yl]oxy}methyl)-4-oxopyridazin-1(4H)-yl]-N,N-dimethylbenzamide] | 5.52 to 6.00 |
| N#Cc1cc(F)cc(-n2ccc(=O)c(COc3ccc4ncccc4c3)n2)c1 [Example 4, 3-fluoro-5-{4-oxo-3-[(quinolin-6-yloxy)methyl]pyridazin-1(4H)-yl}benzonitrile] | > 7.00 |
| Cn1cc(-n2ccc(=O)c(COc3cccc4cnccc34)n2)cn1 [Example 2, 3-[(isoquinolin-5-yloxy)methyl]-1-(1-methyl-1H-pyrazol-4-yl)pyridazin-4(1H)-one] | 5.52 to 6.00 |
| Cn1cc(-n2ccc(=O)c(COc3ccc4ncc(OCC5(C)COC5)cc4c3)n2)cn1 [Example 26, 3-[({3-[(3-methyloxetan-3-yl)methoxy]quinolin-6-yl}oxy)methyl]-1-(1-methyl-1H-pyrazol-4-yl)pyridazin-4(1H)-one] | > 7.00 |
| O=c1ccn(-c2cc(F)cc(F)c2)nc1COc1ccc2ncccc2c1 [Example 7, 1-(3,5-difluorophenyl)-3-[(quinolin-6-yloxy)methyl] pyridazin-4(1H)-one] | > 7.00 |
| Cn1cc(-n2ccc(=O)c(COc3ccc4ncccc4c3)n2)cn1 [Example 1, 1-(1-Methyl-1H-pyrazol-4-yl)-3-[(quinolin-6-yloxy)methyl]pyridazin-4(1H)-one] | > 7.00 |
| CCn1cc(-n2ccc(=O)c(COc3ccc4ncccc4c3)n2)cn1 [Example 22, 1-(1-ethyl-1H-pyrazol-4-yl)-3-[(quinolin-6-yloxy)methyl] pyridazin-1(4H)-one] | > 7.00 |

The remaining lines, values ahead:

| pIC50 | SMILES |
| --- | --- |
| 6.00 to 7.00 | COc1ccnc2ccc(C(C)Oc3nn(-c4cnn(C)c4)ccc3=O)cc12 (centres unmarked) [Example 131, 3-[1-(4-methoxyquinolin-6-yl)ethoxy]-1-(1-methyl-1H-pyrazol-4-yl)pyridazin-4(1H)-one] |
| > 7.00 | CCOc1cnc2ccc(SCc3nn(-c4cnn(C)c4)ccc3=O)cc2c1 [Example 100, 3-{[(3-ethoxyquinolin-6-yl)sulfanyl]methyl}-1-(1-methyl-1H-pyrazol-4-yl)pyridazin-4(1H)-one] |
| 6.00 to 7.00 | CCOC(=O)Nc1ccc(OCc2nn(-c3cnn(C)c3)ccc2=O)cc1 [Example 122, ethyl (4-{[1-(1-methyl-1H-pyrazol-4-yl)-4-oxo-1,4-dihydropyridazin-3-yl]methoxy}phenyl)carbamate] |
| > 7.00 | CCn1cc(-n2ccc(=O)c(COc3ccc4ncc(-c5cncnc5)cc4c3)n2)cn1 [Example 85, 1-(1-ethyl-1H-pyrazol-4-yl)-3-{[(3-pyrimidin-5-ylquinolin-6-yl)oxy]methyl}pyridazin-4(1H)-one] |
| > 7.00 | Cn1cc(-n2ccc(=O)c(CNc3ccc4ncccc4c3)n2)cn1 [Example 104, 1-(1-Methyl-1H-pyrazol-4-yl)-3-[(quinolin-6-ylamino)methyl]pyridazin-4(1H)-one] |
| > 7.00 | CCOc1cnc2ccc(C(C)Oc3nn(-c4cnn(C)c4)ccc3=O)cc2c1 (single isomer, unassigned) [Example 141, 3-[1-(3-ethoxyquinolin-6-yl)ethoxy]-1-(1-methyl-1H-pyrazol-4-yl)pyridazin-4(1H)-one] |
| > 7.00 | CCn1cc(-n2ccc(=O)c(OC(C)c3ccc4nccc(OC)c4c3)n2)cn1 (centres unmarked) [Example 132, 1-(1-ethyl-1H-pyrazol-4-yl)-3-[1-(4-methoxyquinolin-6-yl)ethoxy]pyridazin-4(1H)-one] |
| > 7.00 | Cn1cc(-n2ccc(=O)c(COc3ccc4nccc(Cl)c4c3)n2)cn1 [Example 97, 3-{[(4-Chloroquinolin-6-yl)oxy]methyl}-1-(1-methyl-1H-pyrazol-4-yl)pyridazin-4(1H)-one] |
| 5.52 to 6.00 | Cn1cc(-n2ccc(=O)c(CCc3ccnc4[nH]ccc34)n2)cn1 [Example 55, 1-(1-methyl-1H-pyrazol-4-yl)-3-[2-(1H-pyrrolo[2,3-b]pyridin-4-yl)ethyl]pyridazin-4(1H)-one] |
| 6.00 to 7.00 | COC(=O)c1cnc2ccc(OCc3nn(-c4cnn(C)c4)ccc3=O)cc2c1 [Example 95, Methyl 6-{[1-(1-methyl-1H-pyrazol-4-yl)-4-oxo-1,4-dihydropyridazin-3-yl]methoxy}quinoline-3-carboxylate] |
| > 7.00 | COCc1cnc2ccc(OCc3nn(-c4cnn(C)c4)ccc3=O)cc2c1 [Example 73, 3-({[3-(methoxymethyl)quinolin-6-yl]oxy}methyl)-1-(1-methyl-1H-pyrazol-4-yl)pyridazin-4(1H)-one] |
| > 7.00 | Cn1cc(-n2ccc(=O)c(COc3ccc4ncc(-c5cnn(C6CN(C(=O)OC(C)(C)C)C6)c5)cc4c3)n2)cn1 [Example 92, tert-Butyl 3-[4-(6-{[1-(1-methyl-1H-pyrazol-4-yl)-4-oxo-1,4-dihydropyridazin-3-yl]methoxy}quinolin-3-yl)-1H-pyrazol-1-yl]azetidine-1-carboxylate] |
| > 7.00 | Cn1cc(-n2ccc(=O)c(COc3ccc4ncc(-c5cnn(C6COC6)c5)cc4c3)n2)cn1 [Example 96, 1-(1-Methyl-1H-pyrazol-4-yl)-3-[({3-[1-(oxetan-3-yl)-1H-pyrazol-4-yl]quinolin-6-yl}oxy)methyl]pyridazin-4(1H)-one] |
| > 7.00 | COCCOc1cnc2ccc(C(C)Oc3nn(-c4cnn(C)c4)ccc3=O)cc2c1 (single isomer, unassigned) [Example 143, 3-{1-[3-(2-methoxyethoxy)quinolin-6-yl]ethoxy}-1-(1-methyl-1H-pyrazol-4-yl)pyridazin-4(1H)-one] |
| 5.52 to 6.00 | CC(Oc1ccc2ncccc2c1)c1nn(-c2cccc(Br)c2)ccc1=O (single isomer, unassigned) [Example 114, 1-(3-bromophenyl)-3-[1-(quinolin-6-yloxy)ethyl]pyridazin-4(1H)-one] |
